From patent US11254663B2 (BRISTOL-MYERS SQUIBB COMPANY, priority 2019, dated 2022)

These compounds were tested against FXR (Homo sapiens (Human), UniProt Q96RI1) (assay: transient human FXR/Gal4-luciferase reporter assay). Conditions: not given.
Type: cell-based
How it was run: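 Compound exposure ran overnight at 37 °C and activity was measured as luminescence with Steady-Glo reagent. The cells were a HEK293 line stably expressing firefly luciferase under five Gal4 response elements. They were transiently transfected, one night beforehand, with a plasmid encoding Gal4 DNA-binding domain fused to the human FXR ligand-binding domain.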

Sequence of FXR (Q96RI1 262-486): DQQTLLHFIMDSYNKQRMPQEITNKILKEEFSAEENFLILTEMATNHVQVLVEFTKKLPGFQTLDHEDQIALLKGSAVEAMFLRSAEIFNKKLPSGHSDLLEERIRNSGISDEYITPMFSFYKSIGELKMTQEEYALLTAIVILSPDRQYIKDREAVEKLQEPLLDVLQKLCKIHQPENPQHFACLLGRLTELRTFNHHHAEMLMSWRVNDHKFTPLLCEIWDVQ

| Structure (SMILES) | EC50 |
| --- | --- |
| CCOc1ncc(-c2cccc(N(CC34CCC(c5noc(C6(C(F)(F)F)CC6)n5)(CC3)CC4)C(=O)C34CC(F)(C3)C4)c2)cn1 [Example 525, N-(3-(2-ethoxypyrimidin-5-yl)phenyl)-3-fluoro-N-((4-(5-(1-(trifluoromethyl)cyclopropyl)-1,2,4-oxadiazol-3-yl)bicyclo[2.2.2]octan-1-yl)methyl)bicyclo[1.1.1]pentane-1-carboxamide] | 142 nM |
| CC(C)(O)c1ccc(-c2cccc(N(CC34CCC(c5noc(C(C)(C)F)n5)(CC3)CC4)C(=O)NCC3(O)CC3)c2)cc1 [Example 648, 1-((4-(5-(2-fluoropropan-2-yl)-1,2,4-oxadiazol-3-yl)bicyclo[2.2.2]octan-1-yl)methyl)-3-((1-hydroxycyclopropyl)methyl)-1-(4′-(2-hydroxypropan-2-yl)-[1,1′-biphenyl]-3-yl)urea] | 509 nM |
| CC(C)(O)c1ccc(-c2cccc(N(CC34CCC(c5noc(C(C)(C)F)n5)(CC3)CC4)C(=O)NCC3(S(C)(=O)=O)CC3)c2)cc1 [Example 642] | 294 nM |
| O=C(N(CC12CCC(c3nc(C(F)F)no3)(CC1)CC2)c1cccc(-c2cnc(C(F)(F)F)nc2)c1)C12CC(F)(C1)C2 [Example 467, N-((4-(3-(difluoromethyl)-1,2,4-oxadiazol-5-yl)bicyclo[2.2.2]octan-1-yl)methyl)-3-fluoro-N-(3-(2-(trifluoromethyl)pyrimidin-5-yl)phenyl)bicyclo[1.1.1]pentane-1-carboxamide] | 2110 nM |
| Cc1nc2ccc(-c3cccc(N(CC45CCC(c6nc(C7CC7)no6)(CC4)OC5)C(=O)C4CCC(F)(F)C4)c3)cc2s1 (stereo not shown) [Example 567, N-((1-(3-cyclopropyl-1,2,4-oxadiazol-5-yl)-2-oxabicyclo[2.2.2]octan-4-yl)methyl)-3,3-difluoro-N-(3-(2-methylbenzo[d]thiazol-6-yl)phenyl)cyclopentane-1-carboxamide] | 432 nM |

Same assay, conditions: Gal4-hFXR fusion construct, HEK293 reporter cells; response relative to 8 μM GW-4064

| Structure (SMILES) | EC50 |
| --- | --- |
| CC(C)c1nc(C23CCC(CN(C(=O)C45CC(F)(C4)C5)c4cccc(-c5cnc(C(F)(F)F)nc5)c4)(CC2)CC3)no1 [Example 435, 3-fluoro-N-((4-(5-isopropyl-1,2,4-oxadiazol-3-yl)bicyclo[2.2.2]octan-1-yl)methyl)-N-(3-(2-(trifluoromethyl)pyrimidin-5-yl)phenyl)bicyclo[1.1.1]pentane-1-carboxamide] | 240 nM |
| CCOc1ncc(-c2cccc(N(CC34CCC(c5nc(C(C)(C)C)no5)(CC3)CC4)C(=O)C34CC(F)(C3)C4)c2)cn1 [Example 357, N-((4-(3-(tert-butyl)-1,2,4-oxadiazol-5-yl)bicyclo[2.2.2]octan-1-yl)methyl)-N-(3-(2-ethoxypyrimidin-5-yl)phenyl)-3-fluorobicyclo[1.1.1]pentane-1-carboxamide] | 83 nM |
| CC(C)c1noc(C23CCC(CN(C(=O)C45CC(F)(C4)C5)c4cccc(-c5ccc(OC(F)F)cc5)c4)(CC2)CC3)n1 [Example 387, N-(4′-(difluoromethoxy)-[1,1′-biphenyl]-3-yl)-3-fluoro-N-((4-(3-isopropyl-1,2,4-oxadiazol-5-yl)bicyclo[2.2.2]octan-1-yl)methyl)bicyclo[1.1.1]pentane-1-carboxamide] | 47 nM |
| CCOc1ccc(-c2cccc(N(CC34CCC(c5noc(C(C)C)n5)(CC3)CC4)C(=O)C34CC(F)(C3)C4)c2)cn1 [Example 432, N-(3-(6-ethoxypyridin-3-yl)phenyl)-3-fluoro-N-((4-(5-isopropyl-1,2,4-oxadiazol-3-yl)bicyclo[2.2.2]octan-1-yl)methyl)bicyclo[1.1.1]pentane-1-carboxamide] | 51 nM |
| CCOc1ncc(-c2cncc(N(CC34CCC(c5nc(C6CC6)no5)(CC3)CC4)C(=O)C34CC(F)(C3)C4)c2)cn1 [Example 423, N-((4-(3-cyclopropyl-1,2,4-oxadiazol-5-yl)bicyclo[2.2.2]octan-1-yl)methyl)-N-(5-(2-ethoxypyrimidin-5-yl)pyridin-3-yl)-3-fluorobicyclo[1.1.1]pentane-1-carboxamide] | 238 nM |
